Reference: patent US20220241308A1, “NEURONAL FUNCTION MODULATING AGENT” (University of Tsukuba, priority 2019, published 2022)

How the values were obtained:
Type in all cases: cell-based
[1] = test system: MAPK8 (mitogen-activated protein kinase 8); experiment: Gene expression experiment (real-time PCR) in SH-SY5Y cells: MAPK8; conditions: 24 h
Experimental: (§1) SH-SY5Y cells were seeded in 100 mm-cell dishes (BD Biocoat) at concentrations of 3.7×10^5 cells/mL (10 mL/dish) and cultured for 24 h at 37° C. and 5% CO2. Culture medium used was F12/DMEM (Gibco) supplemented with 1% non-essential amino acids (Gibco), 15% FBS (Bio West), and 1% penicillin/streptomycin (Lonza). After 24 h, the culture medium was completely removed with an aspirator, 10 mL of culture medium Opti-MEM(Gibco) was added to each dish, and the cells were cultured for 24 h at 37° C. and 5% CO2. RNA was extracted from the culture cells and analyzed for the expression of genes described below by real-time PCR (designated as “Control” in FIGS. 2 to 8).
(§2) RNA extraction was performed using ISOGEN Reagent (Nippon Gene Co., Ltd.) in accordance with the protocol recommended by Nippo n Gene Co., Ltd. (see URL: https://www.nippongene.com/siyaku/product/extraction/tds/tds_isogen-rna-dna-protein.pdf). Real-time PCR was performed according to the protocol recommended by Thermo Fisher Scientific using a reagent kit for TaqMan Real-Time PCR (Thermo Fisher Scientific) (see URL: https://assets.thermofisher.com/TFS-Assets/LSG/manuals/4304449_TaqManPCRMM_UG.pdf).
(§3) 24 h after seeding 100 mm-cell dishes (BD Biocoat) with SH-SY5Y cells, the culture medium was completely removed with an aspirator, amyloid β protein (Beta-Amyloid 1-42, AnaSpec) was mixed with Opti-MEM (Gibco) so that the final concentration was 5 μM, 10 mL of the mixture was added to each dish, the cells were cultured for 24 h at 37° C. and 5% CO2, and RNA was extracted. Except for performing the procedure described above, gene expression was analyzed as described above (designated as “Aβ” in FIGS. 2 to 8).
(§4) 24 h after seeding 100 mm-cell dishes (BD Biocoat) with SH-SY5Y cells, the culture medium was completely removed with an aspirator, Sample 1 was mixed with culture medium Opti-MEM(Gibco) so that the final concentration was 12.56 μM, 9,990 μL of the mixture was added to each dish and allowed to stand for 10 min, amyloid β protein (Beta-Amyloid 1-42, AnaSpec) was mixed with Opti-MEM (Gibco) so that the final concentration was […], 10 μL of the mixture was added to each well, the cells were cultured for 24 h at 37° C. and 5% CO2, and RNA was extracted. Except for performing the procedure described above, Gene expression was analyzed as described above (designated as “Aβ+M3,5G” in FIGS. 2 to 8).
(§5) Except that Sample 2 was used instead of Sample 1, gene expression was analyzed as described above (designated as “Aβ+M” in FIGS. 2 to 8).
(§6) Except that Sample 3 was used instead of Sample 1, gene expression was analyzed as described above (designated as “Aβ+M3G” in FIGS. 2 to 8). […]

[2] = test system: PARP1 (poly(ADP-ribose) polymerase 1); experiment: Gene expression experiment (real-time PCR) in SH-SY5Y cells: PARP1; conditions: 24 h
Experimental: as §1, §2, §3, §4, §5, §6

[3] = test system: AKT1 (AKT serine/threonine kinase 1); experiment: Gene expression experiment (real-time PCR) in SH-SY5Y cells: AKT1; conditions: for expression of AKT1: 24 h
Experimental: as §1, §2, §3, §4, §5
Except that Sample 3 was used instead of Sample 1, gene expression was analyzed as described above (designated as “Aβ+M3G” in FIGS. 2 to 8).
24 h after seeding 100 mm-cell dishes (BD Biocoat) with SH-SY5Y cells, the culture medium was completely removed with an aspirator, 10 mL of culture medium Opti-MEM(Gibco) mixed with Sample 1 was added to each dish, the cells were cultured for 24 h at 37° C. and 5% CO2, and RNA was extracted. Except for performing the procedure described above, gene expression was analyzed as described above (designated as “M3,5G” in FIGS. 2 to 8).

[4] = test system: SH-SY5Y cells; experiment: ATP production measurement experiment; conditions: 12.56 μM; 6 h, 12 h, 24 h; compared to “Control”
Experimental: Specifically, ATP production was measured according to the protocol recommended by Toyo B-NET (URL: https://search.cosmobio.co.jp/cosmo_search_p/search_gate2/docs/TIC_/CA10.20131125.pdf) using an ATP assay reagent (“Cell” ATP Assay reagent, Toyo B-NET) (designated as “Control” in FIG. 9).
Each well of a 96-well plate (BD Biocoat) was seeded with SH-SY5Y cells (model of neuronal cells, ATCC) at a concentration of 2×10^5 cells/mL (100 μL/well) and the cells were cultured at 37° C. and 5% CO2 for 24 h. Culture medium used was F12/DMEM (Gibco) supplemented with 1% non-essential amino acids (Gibco), 15% FBS (Bio West), and 1% penicillin/streptomycin (Lonza).
After 24 h, the culture medium was completely removed with an aspirator, 100 μL of culture medium Opti-MEM (Gibco) was added to each well, and the cells were cultured for 6 h, 12 h, and 24 h at 37° C. and 5% CO2. After each culturing time point, 100 μL of ATP assay reagent (“Cell” ATP Assay reagent, Toyo Ink)) was added to each well and mixed and the mixture was allowed to stand for reaction for 10 min at room temperature in dark conditions. […] Light emission after a lapse of a predetermined time was measured on a microplate reader (Sumitomo Dainippon Pharma) to find ATP production (designated as “Control” in FIG. 9). […]

[5] = 12.56 μM, amyloid β protein-treated cells, compared to “Aβ”
[6] = 12.56 μM, amyloid β protein-treated cells, compared to “Control”
[7] = Sample 1 alone, no amyloid β, compared to “Control”

COc1cc(-c2[o+]c3cc(O)cc(OC4OC(CO)C(O)C(O)C4O)c3cc2OC2OC(CO)C(O)C(O)C2O)cc(OC)c1O (stereo not shown) [M3,5G, Malvidin-3,5-diglucoside chloride]
expression of MAPK8 [1, 5]: significantly high
expression of MAPK8 [1, 6]: significantly high
expression of MAPK8 [1, 7]: significantly increased
expression of PARP1 [2, 5]: significantly high
expression of PARP1 [2, 7]: comparable
expression of AKT1 [3, 5]: significantly high
expression of AKT1 [3, 6]: significantly high
expression of AKT1 [3, 7]: significantly increased
activity in increasing the expression of AKT1 ([3]; amyloid β protein-treated cells, 12.56 μM, ranked against malvidin and malvidin-3-glucoside): highest activity
ATP production [4]: increased ATP production
